US7932270B2 (Cytokinetics, Inc., priority 2006, dated 2011)

molecular target: T1, chicken gizzard smooth muscle myosin subfragment-1 chemically crosslinked to cardiac or skeletal actin (Gallus gallus, UniProt P10587); test: Smooth muscle myosin ATPase dose response assay (pyruvate kinase/horseradish peroxidase/pyruvate oxidase-coupled, amplex red fluorescence); assay type: biochemical; details: read-out: IC50 Arithmetic Mean
T1 construct: chicken gizzard smooth muscle myosin subfragment-1; from tissue; host or cells: chicken gizzard
T1 sequence (P02607 2-151): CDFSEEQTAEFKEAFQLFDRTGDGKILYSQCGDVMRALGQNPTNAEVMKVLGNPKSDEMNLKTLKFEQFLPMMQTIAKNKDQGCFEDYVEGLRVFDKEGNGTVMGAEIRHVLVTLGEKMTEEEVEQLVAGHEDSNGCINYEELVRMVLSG
T1 sequence (P10587 84-789): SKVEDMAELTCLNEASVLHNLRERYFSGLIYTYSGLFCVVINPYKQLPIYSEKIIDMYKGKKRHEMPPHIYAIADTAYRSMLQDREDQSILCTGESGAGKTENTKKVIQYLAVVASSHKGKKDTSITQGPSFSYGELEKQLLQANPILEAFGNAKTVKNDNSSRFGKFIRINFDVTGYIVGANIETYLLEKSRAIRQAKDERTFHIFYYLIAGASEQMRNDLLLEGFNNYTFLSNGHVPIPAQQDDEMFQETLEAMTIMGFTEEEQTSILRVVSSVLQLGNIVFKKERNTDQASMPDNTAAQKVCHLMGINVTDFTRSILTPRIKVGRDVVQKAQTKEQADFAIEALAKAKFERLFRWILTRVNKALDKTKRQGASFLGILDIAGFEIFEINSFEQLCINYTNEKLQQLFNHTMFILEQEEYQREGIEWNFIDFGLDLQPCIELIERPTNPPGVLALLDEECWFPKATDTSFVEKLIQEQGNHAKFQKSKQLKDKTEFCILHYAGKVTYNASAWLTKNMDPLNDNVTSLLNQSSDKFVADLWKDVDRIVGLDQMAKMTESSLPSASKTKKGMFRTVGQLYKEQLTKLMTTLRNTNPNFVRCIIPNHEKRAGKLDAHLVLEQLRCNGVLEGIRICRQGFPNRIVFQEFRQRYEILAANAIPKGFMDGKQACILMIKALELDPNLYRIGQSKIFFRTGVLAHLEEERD
Method in brief: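 Chicken gizzard myosin S1 crosslinked to cardiac or skeletal actin, titrated to a set hydrolysis rate; 0.15 mM ATP, 12 mM PIPES pH 7.00, 100 mM KCl, 2 mM MgCl2. Pyruvate kinase/pyruvate oxidase/HRP coupling with amplex red fluorescence; IC50 from 4-parameter fit.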

IC50 [µM]	Compound
0.414	O=C(NCc1cccnc1)c1ccc(-c2ccsc2)nc1NCCc1ccccn1 [{2-[(2-(2-pyridyl)ethyl)amino]-6-(3-thienyl)(3-pyridyl)}-N-(3-pyridylmethyl)carboxamide]
0.012	NCc1ncccc1CNC(=O)c1cc(F)c(-c2cn[nH]c2)nc1NCCc1cccc(F)c1 [N-{[2-(aminomethyl)(3-pyridyl)]methyl}(5-fluoro-2-{[2-(3-fluorophenyl)ethyl]amino}-6-pyrazol-4-yl(3-pyridyl))carboxamide]
43.7	O=C(NCC1CCNCC1)c1ccc(-c2ccccc2)nc1NCCc1ccccn1 [{6-phenyl-2-[(2-(2-pyridyl)ethyl)amino](3-pyridyl)}-N-(4-piperidylmethyl)carboxamide]
0.173	N#Cc1ccccc1-c1ccc(C(=O)NC[C@H]2CCCN2C(=O)[C@@H](N)CO)c(NCCc2cccc(F)c2)n1 [N-{[(2R)-1-((2S)-2-amino-3-hydroxypropanoyl)pyrrolidin-2-yl]methyl}(6-(2-cyanophenyl)-2-{[2-(3-fluorophenyl)ethyl]amino}(3-pyridyl))carboxamide]
0.456	N#Cc1ccccc1-c1ccc(C(=O)NC[C@H]2CCCCN2C(=O)[C@H](N)CCCN)c(NCCc2cccc(F)c2)n1 [N-{[(2R)-1-((2R)-2,5-diaminopentanoyl)(2-piperidyl)]methyl}(6-(2-cyanophenyl)-2-{[2-(3-fluorophenyl)ethyl]amino}(3-pyridyl))carboxamide]
0.099	C[C@H](N)C(=O)N1CCC[C@@H]1CNC(=O)c1cc(F)c(-c2cnn(C)c2)nc1NCCc1cccc(F)c1 [N-{[(2R)-1-((2S)-2-aminopropanoyl)pyrrolidin-2-yl]methyl}(5-fluoro-2-{[2-(3-fluorophenyl)ethyl]amino}-6-(1-methylpyrazol-4-yl)(3-pyridyl))carboxamide]
4.44	O=C(NCc1cccnc1)c1ccc(-c2ccccc2Cl)nc1NCCc1ccccn1 [{6-(2-chlorophenyl)-2-[(2-(2-pyridyl)ethyl)amino](3-pyridyl)}-N-(3-pyridylmethyl)carboxamide]
0.173	N#Cc1ccccc1-c1ccc(C(=O)NC[C@H]2CCCN(C(=O)CCN)C2)c(NCCc2cccc(F)c2)n1 [N-{[(3R)-1-(3-aminopropanoyl)(3-piperidyl)]methyl}(6-(2-cyanophenyl)-2-{[2-(3-fluorophenyl)ethyl]amino}(3-pyridyl))carboxamide]
4.52	N#Cc1ccccc1-c1ccc(C(=O)NC[C@@H]2CN(CCCN)CC(=O)N2)c(NCCc2cccc(F)c2)n1 [N-{[(2R)-4-(3-aminopropyl)-6-oxopiperazin-2-yl]methyl}(6-(2-cyanophenyl)-2-{[2-(3-fluorophenyl)ethyl]amino}(3-pyridyl))carboxamide]
0.024	NCc1ncccc1CNC(=O)c1ccc(-c2cn[nH]c2)nc1NCCc1cccc(F)c1 [N-{[2-(aminomethyl)(3-pyridyl)]methyl}(2-{[2-(3-fluorophenyl)ethyl]amino}-6-pyrazol-4-yl(3-pyridyl))carboxamide]
0.381	Cc1cc(C(=O)NC[C@H]2CCCN2C(=O)CCCN)c(NCCc2cccc(F)c2)nc1-c1cnn(C)c1 [N-{[(2R)-1-(4-aminobutanoyl)pyrrolidin-2-yl]methyl}(2-{[2-(3-fluorophenyl)ethyl]amino}-5-methyl-6-(1-methylpyrazol-4-yl)(3-pyridyl))carboxamide]
9.04	CC(C)(C)OC(=O)N1CCC[C@@H]1CNC(=O)c1cc(F)c(-c2ccccc2C#N)nc1NCCc1cccc(F)c1 [tert-butyl (2R)-2-{[(6-(2-cyanophenyl)-5-fluoro-2-{[2-(3-fluorophenyl)ethyl]amino}(3-pyridyl))carbonylamino]methyl}pyrrolidinecarboxylate]
0.401	N#Cc1ccccc1-c1ccc(C(=O)NCc2cnccc2CN)c(NCCc2cccc(F)c2)n1 [N-{[4-(aminomethyl)(3-pyridyl)]methyl}(6-(2-cyanophenyl)-2-{[2-(3-fluorophenyl)ethyl]amino}(3-pyridyl))carboxamide]
0.073	COC(=O)[C@H](C)CNC(=O)c1cc(F)c(-c2cn[nH]c2)nc1NCCc1cccc(F)c1 [methyl (2R)-3-[(5-fluoro-2-{[2-(3-fluorophenyl)ethyl]amino}-6-pyrazol-4-yl(3-pyridyl))carbonylamino]-2-methylpropanoate]
0.525	CC(C)(C)OC(=O)N1CC[C@@H]1CNC(=O)c1ccc(-c2cn[nH]c2)nc1NCCc1cccc(F)c1 [tert-butyl (2R)-2-{[(2-{[2-(3-fluorophenyl)ethyl]amino}-6-pyrazol-4-yl(3-pyridyl))carbonylamino]methyl}azetidinecarboxylate]
2.34	NCCCN1C(=O)CNC[C@@H]1CNC(=O)c1ccc(-c2cn[nH]c2)nc1NCCc1cccc(F)c1 [N-{[(2R)-1-(3-aminopropyl)-6-oxopiperazin-2-yl]methyl}(2-{[2-(3-fluorophenyl)ethyl]amino}-6-pyrazol-4-yl(3-pyridyl))carboxamide]
1.24	NCc1ncccc1CNC(=O)c1ccc(-c2cn[nH]c2)nc1NCCc1ccccn1 [N-{[2-(aminomethyl)(3-pyridyl)]methyl}{6-pyrazol-4-yl-2-[(2-(2-pyridyl)ethyl)amino](3-pyridyl)}carboxamide]

Further lines, the compound ahead of its results:

Compound	IC50 [µM]
CC(C)(C)OC(=O)NCC(=O)N1CCCC[C@H]1CNC(=O)c1ccc(-c2ccccc2C#N)nc1NCCc1cccc(F)c1 [N-[((2S)-1-{2-[(tert-butoxy)carbonylamino]acetyl}(2-piperidyl))methyl](6-(2-cyanophenyl)-2-{[2-(3-fluorophenyl)ethyl]amino}(3-pyridyl))carboxamide]	17
Cn1ncc(-c2ccc(C(=O)NCc3cccnc3)c(NCCc3cccc(F)c3)n2)c1C#N [(6-(5-cyano-1-methylpyrazol-4-yl)-2-{[2-(3-fluorophenyl)ethyl]amino}(3-pyridyl))-N-(3-pyridylmethyl)carboxamide]	0.02
O=C(NCc1cccnc1)c1cc(F)c(-c2cn[nH]c2)nc1NCCc1cccc(F)c1 [(5-fluoro-2-{[2-(3-fluorophenyl)ethyl]amino}-6-pyrazol-4-yl(3-pyridyl))-N-(3-pyridylmethyl)carboxamide]	0.018
(2-{[2-(2-oxoimidazolidinyl)ethyl]amino}-6-phenyl(3-pyridyl))-N-(3-pyridylmethyl)carboxamide	70.7
C[C@H](CNC(=O)c1ccc(-c2ccccc2C#N)nc1NCCc1cccc(F)c1)N(C)C(=O)CNC(=O)OC(C)(C)C	5.92
Cn1cc(-c2nc(NCCc3cccc(F)c3)c(C(=O)NC[C@@H](N)CO)cc2F)cn1 [N-((2R)-2-amino-3-hydroxypropyl)(5-fluoro-2-{[2-(3-fluorophenyl)ethyl]amino}-6-(1-methylpyrazol-4-yl)(3-pyridyl))carboxamide]	1.26
N#Cc1ccccc1-c1ccc(C(=O)NC2CCC(C(N)=O)C2)c(NCCc2cccc(F)c2)n1 (centres unmarked) [3-[(6-(2-cyanophenyl)-2-{[2-(3-fluorophenyl)ethyl]amino}-3-pyridyl)carbonylamino]cyclopentanecarboxamide]	11.6
CC(C)(C)OC(=O)NCCCC(=O)N1CCC[C@H](CNC(=O)c2ccc(-c3ccccc3C#N)nc2NCCc2cccc(F)c2)C1 [N-[((3R)-1-{4-[(tert-butoxy)carbonylamino]butanoyl}(3-piperidyl))methyl](6-(2-cyanophenyl)-2-{[2-(3-fluorophenyl)ethyl]amino}(3-pyridyl))carboxamide]	6.16
CS(=O)(=O)NCC1CCCCN1C(=O)c1ccc(-c2ccccc2)nc1NCCc1ccccn1 (centres unmarked) [2-{[(methylsulfonyl)amino]methyl}piperidyl 6-phenyl-2-[(2-(2-pyridyl)ethyl)amino](3-pyridyl) ketone]	22.2
N#Cc1ccccc1-c1ccc(C(=O)NC[C@H]2CCCN2CCCN)c(NCCc2cccc(F)c2)n1	1.39
O=C(NC[C@H]1CCN1)c1ccc(-c2cn[nH]c2)nc1NCCc1cccc(F)c1 [N-[((2R)azetidin-2-yl)methyl](2-{[2-(3-fluorophenyl)ethyl]amino}-6-pyrazol-4-yl(3-pyridyl))carboxamide]	5.44
Cn1cc(-c2nc(NCCc3cccc(F)c3)c(C(=O)NC[C@H]3CCCN3)cc2F)cn1 [N-[((2R)pyrrolidin-2-yl)methyl](5-fluoro-2-{[2-(3-fluorophenyl)ethyl]amino}-6-(1-methylpyrazol-4-yl)(3-pyridyl))carboxamide]	0.275
Cn1cc(-c2nc(NCCc3cccc(F)c3)c(C(=O)NCC(CO)CO)cc2F)cn1 [(5-fluoro-2-{[2-(3-fluorophenyl)ethyl]amino}-6-(1-methylpyrazol-4-yl)(3-pyridyl))-N-[3-hydroxy-2-(hydroxymethyl)propyl]carboxamide]	0.134
CC(C)(C)OC(=O)N[C@@H](CCCN)C(=O)N1CC[C@@H]1CNC(=O)c1ccc(-c2ccccc2C#N)nc1NCCc1cccc(F)c1 [N-[2-((2R)-2-([(6-(2-cyanophenyl)-2-{[2-(3-fluorophenyl)ethyl]amino}(3-pyridyl))carbonylamino]methyl}azetidinyl)(1S)-1-(3-aminopropyl)-2-oxoethyl](tert-butoxy)carboxamide]	1.35
Cc1cc(C(=O)NCc2cccnc2CNC(=O)OC(C)(C)C)c(NCCc2cccc(F)c2)nc1-c1cnn(C)c1 [N-[(2-{[(tert-butoxy)carbonylamino]methyl}(3-pyridyl))methyl](2-{[2-(3-fluorophenyl)ethyl]amino}-5-methyl-6-(1-methylpyrazol-4-yl)(3-pyridyl))carboxamide]	1.12
O=C(NCc1cccnc1)c1ccc(-c2ccsc2)nc1NCCc1cc(F)cc(F)c1 [(2-{[2-(3,5-difluorophenyl)ethyl]amino}-6-(3-thienyl)(3-pyridyl))-N-(3-pyridylmethyl)carboxamide]	0.04
C[C@H](CNC(=O)c1ccc(-c2ccccc2C#N)nc1NCCc1cccc(F)c1)NC(=O)CCCN	0.204
NCCCN1CCC(CNC(=O)c2ccc(-c3cn[nH]c3)nc2NCCc2cccc(F)c2)C1=O (centres unmarked) [N-{[1-(3-aminopropyl)-2-oxopyrrolidin-3-yl]methyl}(2-{[2-(3-fluorophenyl)ethyl]amino}-6-pyrazol-4-yl(3-pyridyl))carboxamide]	3.13
